Measurements taken from PMC11360041 (ACS Omega, 2024).

Tests used:
[1] = system: TMV; test: Inactivation effect of compounds against TMV in vivo; parameters: species or system tobacco mosaic virus; details: Tobacco mosaic virus, read-out: relative inhibition rate (%) inactive effect
[2] = system: Fusarium graminearum; test: microbe, parasite or virus in culture; format: cell-based; details: read-out: Inhibition rate, Fg
[3] = system: Sclerotinia sclerotiorum; format: cell-based; details: read-out: Inhibition rate, Ss
[4] = system: watermelon anthracnose; test: organism not typed; format: cell-based; details: read-out: Inhibition rate, Wa
[5] = system: Rhizoctonia solani; format: cell-based; details: read-out: Inhibition rate, Rs
[6] = system: Fusarium oxysporium f. sp. cucumeris; format: cell-based; details: read-out: Inhibition rate, Fc
[7] = system: Bipolaris maydis; format: cell-based; details: read-out: Inhibition rate, Bm
[8] = system: Botrytis cinerea; format: cell-based; details: read-out: Inhibition rate, Bc
[9] = system: Alternaria solani; format: cell-based; details: read-out: Inhibition rate, As
[10] = system: Phytophthora capsici; format: cell-based; details: read-out: Inhibition rate, Pc
[11] = system: Physalospora piricola; format: cell-based; details: read-out: Inhibition rate, Pp, 50 mg/L, Physalospora piricola

SMILES | inhibition at 100 µg/mL [1] [%] | inhibition at 500 µg/mL [1] [%] | inhibition at 50 µg/mL [2] [%] | inhibition at 50 µg/mL [3] [%] | inhibition at 50 µg/mL [4] [%] | inhibition at 50 µg/mL [5] [%] | inhibition at 50 µg/mL [6] [%] | inhibition at 50 µg/mL [7] [%] | inhibition at 50 µg/mL [8] [%] | inhibition at 50 µg/mL [9] [%] | inhibition at 50 µg/mL [10] [%] | inhibition at 50 µg/mL [11] [%]
O=C(Cn1ccc(=O)c2ccccc21)NN=Cc1ccccc1[N+](=O)[O-] [Compound 16] | 0 | 14.6 ± 4 | 23.8 ± 1.7 | 24.4 ± 1.1 | 23.3 ± 1.6 | 35.7 ± 1.5 | 18.4 ± 1.3 | 13.3 ± 1.5 | 20.8 ± 1.2 | 30.8 ± 1.4 | 14.3 ± 0.7 | –
CC(C)(C)c1ccc(C=NNC(=O)Cn2ccc(=O)c3ccccc32)cc1 [Compound 3] | 0 | 24.1 ± 1 | 16.7 ± 1.3 | 22 ± 1.9 | 16.3 ± 1.3 | 17.9 ± 1.8 | 10.2 ± 1.6 | 8.9 ± 0.7 | 29.2 ± 1.7 | 30.8 ± 2.3 | 23.8 ± 1.5 | 35.3 ± 2.1
CSc1ccc(C=NNC(=O)Cn2ccc(=O)c3ccccc32)cc1 [Compound 10] | 0 | 15.4 ± 2 | 2.4 ± 0.6 | 7.3 ± 1.4 | 14 ± 1.7 | 3.6 ± 1.1 | 12.2 ± 1.3 | 13.3 ± 0.9 | 14.6 ± 1.2 | 30.8 ± 2.1 | 23.8 ± 1.6 | 58.8 ± 3.2
CCOC(=O)Cn1ccc(=O)c2ccccc21 [Compound B, (4-Oxo-4H-quinolin-1-yl)-acetic Acid Ethyl Ester] | 0 | 32.1 ± 1.6 | – | – | – | – | – | – | – | – | – | –
COc1ccc(C=NNC(=O)Cn2ccc(=O)c3ccccc32)cc1OC [Compound 5] | 0 | 11.3 ± 3.2 | 14.3 ± 1.5 | 24.4 ± 1.1 | 16.3 ± 1.2 | 12.5 ± 1.4 | 16.3 ± 1.3 | 11.1 ± 0.7 | 18.8 ± 1.9 | 30.8 ± 2.1 | 14.3 ± 0.9 | 22.1 ± 1.5
O=C(Cn1ccc(=O)c2ccccc21)NN=Cc1cccnc1 [Compound 19] | 0 | 20.5 ± 3.6 | 26.2 ± 0.9 | 36.6 ± 1.6 | 46.5 ± 1.3 | 26.8 ± 1.4 | 26.5 ± 0.7 | 46.7 ± 1.1 | 20.8 ± 0.9 | 46.2 ± 2.2 | 14.3 ± 1.2 | 44.1 ± 2.8
O=C(Cn1ccc(=O)c2ccccc21)NN=Cc1ccc(-n2cccn2)cc1 [Compound 9] | 5.1 ± 0.8 | 38.1 ± 3.2 | 9.5 ± 0.5 | 12.2 ± 1.8 | 14 ± 1.5 | 35.7 ± 2.2 | 18.4 ± 0.7 | 15.6 ± 2.1 | 25 ± 1.5 | 38.5 ± 1.3 | 14.3 ± 1.1 | 27.9 ± 1.2
O=C(Cn1ccc(=O)c2ccccc21)NN=Cc1ccccc1 [Compound 1] | 0 | 29.3 ± 1.4 | 14.3 ± 1.2 | 19.5 ± 0.7 | 16.3 ± 1.3 | 14.3 ± 1.3 | 22.4 ± 1.9 | 15.6 ± 1.7 | 33.3 ± 1.6 | 30.8 ± 2.3 | 21.4 ± 1.1 | 16.2 ± 0.5
COC(=O)Nc1nc2ccccc2[nH]1 [carbendazim, reference compound] | – | – | 29 ± 1.7 | 100 | 100 | 100 | – | – | 86 ± 1.4 | 98 ± 1.4 | – | 96 ± 1.2
O=C(Cn1ccc(=O)c2ccccc21)NN=Cc1ccc(Br)cc1 [Compound 14] | 0 | 31.7 ± 2.5 | 2.4 ± 0.6 | 2.4 ± 0.4 | 18.6 ± 1.7 | 1.8 ± 0.7 | 22.4 ± 1.3 | 4.4 ± 0.6 | 20.8 ± 2.1 | 23.1 ± 1.5 | 21.4 ± 1.8 | 32.4 ± 2.3
CN(C)c1ccc(C=NNC(=O)Cn2ccc(=O)c3ccccc32)cc1 [Compound 8] | 0 | 28.1 ± 1.3 | 23.8 ± 1.9 | 12.2 ± 1.3 | 16.3 ± 1.7 | 35.7 ± 2.1 | 16.3 ± 1.6 | 13.3 ± 1.4 | 25 ± 1.2 | 30.8 ± 2.3 | 14.3 ± 1.8 | 29.4 ± 2.3
